According to patent US20250026721A1, “COMPOUNDS AND METHODS FOR MODULATING RAS-PI3K” (Vividion Therapeutics, Inc., priority 2023, published 2025):
pIC50: −log10 of the molar value.

What was measured:
[1] = target: T1, PIK3CA (Homo sapiens, UniProt P42336); assay: In vitro ELISA target engagement assay for PIK3CA in Jurkat cellular lysate (competition with PIK3CA Biotin Probe); type: binding; conditions: 1 hour at rt, then 500 nM PIK3CA Biotin Probe, read-out: Elisa Target Engagement Assay (TE50)
T1 construct: endogenous in cells; host or cells: Jurkat cell lysate
Summary of the method: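 Jurkat lysate from sonicated frozen cells was preincubated 1 h at rt with serially diluted compound up to 200 μM, then labelled 1 h at rt with PIK3CA biotin probe at 500 nM final. Probe-bound PIK3CA was captured on antibody-coated plates and detected with Neutravidin-HRP luminescence; TE50 derived from the dose response.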

[2] = system: pAKT(S473) in FaDu cell line; assay: In vitro Phospho-AKT(S473) HTRF analysis in FaDu cells; type: cell-based; conditions: Homo sapiens, 0.5 h; for pIC50: FaDu cells, 30 minutes at 37° C.; for Emax: FaDu, read-out: FaDu pAKT Imax % control
Summary of the method: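 FaDu or H358 cells were plated overnight in medium with 1% FBS, then exposed to a compound dose response for 30 minutes at 37° C. Phospho-AKT(S473) levels were measured by HTRF.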

T1 sequence (P42336 whole entry): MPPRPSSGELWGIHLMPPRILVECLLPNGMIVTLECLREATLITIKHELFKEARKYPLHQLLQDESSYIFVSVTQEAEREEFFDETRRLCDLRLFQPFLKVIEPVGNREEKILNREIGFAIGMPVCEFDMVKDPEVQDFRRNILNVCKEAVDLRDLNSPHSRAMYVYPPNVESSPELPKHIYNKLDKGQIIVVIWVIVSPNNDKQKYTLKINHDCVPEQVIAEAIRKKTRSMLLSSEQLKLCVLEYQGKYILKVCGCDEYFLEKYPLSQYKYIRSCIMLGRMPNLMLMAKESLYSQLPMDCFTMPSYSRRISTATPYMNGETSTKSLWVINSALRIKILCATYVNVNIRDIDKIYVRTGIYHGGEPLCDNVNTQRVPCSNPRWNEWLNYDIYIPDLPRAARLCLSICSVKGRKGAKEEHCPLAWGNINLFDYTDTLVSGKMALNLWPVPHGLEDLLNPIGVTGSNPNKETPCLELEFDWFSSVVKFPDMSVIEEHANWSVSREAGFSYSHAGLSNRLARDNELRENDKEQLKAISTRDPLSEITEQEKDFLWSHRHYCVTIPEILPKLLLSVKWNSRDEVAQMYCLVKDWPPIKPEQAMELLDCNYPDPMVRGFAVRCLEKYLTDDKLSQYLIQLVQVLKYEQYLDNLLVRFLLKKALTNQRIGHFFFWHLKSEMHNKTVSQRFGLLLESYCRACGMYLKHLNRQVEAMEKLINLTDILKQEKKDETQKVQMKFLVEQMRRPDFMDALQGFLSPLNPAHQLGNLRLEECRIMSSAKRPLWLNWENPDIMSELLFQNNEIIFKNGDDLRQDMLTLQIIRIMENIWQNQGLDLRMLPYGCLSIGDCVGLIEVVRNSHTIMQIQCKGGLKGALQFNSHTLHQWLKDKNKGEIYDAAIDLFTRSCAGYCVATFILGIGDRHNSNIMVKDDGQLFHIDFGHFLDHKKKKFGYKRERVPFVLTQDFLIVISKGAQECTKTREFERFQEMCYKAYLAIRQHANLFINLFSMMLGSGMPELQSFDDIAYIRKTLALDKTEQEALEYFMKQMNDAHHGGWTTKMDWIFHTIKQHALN
T1 sequence (P27986 whole entry partner): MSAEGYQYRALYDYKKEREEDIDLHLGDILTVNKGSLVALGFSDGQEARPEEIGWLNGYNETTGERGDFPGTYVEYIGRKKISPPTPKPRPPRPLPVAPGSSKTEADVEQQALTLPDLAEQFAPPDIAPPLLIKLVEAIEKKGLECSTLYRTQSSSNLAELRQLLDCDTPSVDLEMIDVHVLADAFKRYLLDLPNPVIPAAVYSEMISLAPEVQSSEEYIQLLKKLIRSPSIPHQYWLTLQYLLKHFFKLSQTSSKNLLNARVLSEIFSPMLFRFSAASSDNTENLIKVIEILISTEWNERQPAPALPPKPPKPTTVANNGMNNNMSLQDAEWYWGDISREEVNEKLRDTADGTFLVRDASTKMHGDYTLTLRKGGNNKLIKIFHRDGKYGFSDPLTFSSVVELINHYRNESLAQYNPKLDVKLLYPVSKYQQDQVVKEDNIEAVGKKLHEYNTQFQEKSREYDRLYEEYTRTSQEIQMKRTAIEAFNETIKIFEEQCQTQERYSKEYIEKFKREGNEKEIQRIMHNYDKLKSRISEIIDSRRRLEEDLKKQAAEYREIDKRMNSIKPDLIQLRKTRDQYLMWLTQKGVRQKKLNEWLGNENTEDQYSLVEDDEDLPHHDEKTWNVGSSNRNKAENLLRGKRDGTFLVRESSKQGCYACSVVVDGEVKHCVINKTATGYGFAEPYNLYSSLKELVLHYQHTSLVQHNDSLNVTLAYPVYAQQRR

SMILES	pIC50 [1]	pIC50 [2]	Emax [2]
C[C@H](/C=C\S(C)(=O)=O)NC(=O)[C@]1(F)CCN(S(=O)(=O)c2ccc(OC(F)(F)F)cc2-c2ccccc2Cl)[C@H](C)C1 [Compound 250, (2R,4S)-1-((2′-chloro-5-(trifluoromethoxy)-[1,1′-biphenyl]-2-yl)sulfonyl)-4-fluoro-2-methyl-N-((R,Z)-4-(methylsulfonyl)but-3-en-2-yl)piperidine-4-carboxamide]	6.46	5.78	96.8%
C[C@H](/C=C\S(C)(=O)=O)NC(=O)[C@@]1(F)CCCN(C(=O)[C@@]2(C)CN(CC(F)(F)F)C[C@H]2c2ccccc2Cl)CC1 [Compound 254, (R)-1-((3R,4R)-4-(2-chlorophenyl)-3-methyl-1-(2,2,2-trifluoroethyl)pyrrolidine-3-carbonyl)-4-fluoro-N-((R,Z)-4-(methylsulfonyl)but-3-en-2-yl)azepane-4-carboxamide]	6.06	6.04	92.5%
O=C(/C=C/CNC(=O)C1(F)CCN(S(=O)(=O)c2ccc(Br)cc2-c2ccccc2Cl)CC1)N1CC(F)(F)C1 [Compound 282, (E)-1-((5-bromo-2′-chloro-[1,1′-biphenyl]-2-yl)sulfonyl)-N-(4-(3,3-difluoroazetidin-1-yl)-4-oxobut-2-en-1-yl)-4-fluoropiperidine-4-carboxamide]	6.85	6.43	–
O=C(/C=C\CNC(=O)C1(F)CCN(S(=O)(=O)c2ccc(Br)cc2-c2ccccc2Cl)CC1)N1CC(F)(F)C1 [Compound 285, (Z)-1-((5-bromo-2′-chloro-[1,1′-biphenyl]-2-yl)sulfonyl)-N-(4-(3,3-difluoroazetidin-1-yl)-4-oxobut-2-en-1-yl)-4-fluoropiperidine-4-carboxamide]	7.27	6.91	–
COc1ccc(C(=O)N2CCC[C@](F)(C(=O)N[C@@H]3C=CS(=O)(=O)C3)CC2)c(-c2ccccc2Cl)c1 [Compound 294, (R)-1-(2′-chloro-5-methoxy-[1,1′-biphenyl]-2-carbonyl)-N-((R)-1,1-dioxido-2,3-dihydrothiophen-3-yl)-4-fluoroazepane-4-carboxamide]	6.92	5.67	–

Further compounds by rising pIC50 [1], results first:

pIC50 [1]	pIC50 [2]	SMILES	Emax [2]
6.14	6.49	CCOc1ccc(S(=O)(=O)N2CC[C@@](F)(C(=O)N[C@H](C)/C=C/C(=O)N3CC(F)(F)C3)C[C@H]2C)c(-c2ccccc2Cl)c1 [Compound 298, (2R,4S)-1-((2′-chloro-5-ethoxy-[1,1′-biphenyl]-2-yl)sulfonyl)-N-((R,E)-5-(3,3-difluoroazetidin-1-yl)-5-oxopent-3-en-2-yl)-4-fluoro-2-methylpiperidine-4-carboxamide]	102%
6.59	6.60	C[C@H](/C=C/C(=O)N1CC(F)(F)C1)NC(=O)[C@]1(F)CCN(S(=O)(=O)c2ccc(OC(F)F)cc2-c2ccccc2Cl)[C@H](C)C1 [Compound 251, (2R,4S)-1-((2′-chloro-5-(difluoromethoxy)-[1,1′-biphenyl]-2-yl)sulfonyl)-N-((R,E)-5-(3,3-difluoroazetidin-1-yl)-5-oxopent-3-en-2-yl)-4-fluoro-2-methylpiperidine-4-carboxamide]	102%
6.80	6.57	C[C@H](/C=C/C(=O)N1CC(F)(F)C1)NC(=O)[C@]1(F)CCN(S(=O)(=O)c2ccc(C(F)F)cc2-c2ccccc2Cl)[C@H](C)C1 [Compound 253, (2R,4S)-1-((2′-chloro-5-(difluoromethyl)-[1,1′-biphenyl]-2-yl)sulfonyl)-N-((R,E)-5-(3,3-difluoroazetidin-1-yl)-5-oxopent-3-en-2-yl)-4-fluoro-2-methylpiperidine-4-carboxamide]	77.2%
7.21	7.17	O=C(/C=C\CNC(=O)C1(F)CCN(S(=O)(=O)c2ccc(C(F)(F)F)cc2-c2ccccc2Cl)CC1)N1CC(F)(F)C1 [Compound 284, (Z)-1-((2′-chloro-5-(trifluoromethyl)-[1,1′-biphenyl]-2-yl)sulfonyl)-N-(4-(3,3-difluoroazetidin-1-yl)-4-oxobut-2-en-1-yl)-4-fluoropiperidine-4-carboxamide]	–
